# US20250339400A1, “ARTESUNATE POWDERS, PHARMACEUTICAL COMPOSITIONS AND METHODS OF MANUFACTURE” (AMIVAS, INC., priority 2024, published 2025)
# What was measured:
# [1] = Angle of repose, USP <1174>; assay type: physicochemical
# Description: Angle of repose analyses were performed on artesunate powders based upon USP <1174> and under controlled relative humidity conditions. Polytetrafluoroethylene (PTFE) funnels with 8, 10 and 12 mm openings (i.e., Funnel 1, Funnel 2 and Funnel 3, respectively) were used in conjunction with a stainless steel receiving cylinder (Ø=30 mm). Powder samples were placed in the funnel while the funnel opening was closed with a glass slide. Once all the sample powder was loaded in the funnel, the glass slide was removed to allow powder to land on the cylinder below. The top and side of the funnel were tapped to enable the sample powder to drop down. The funnel height was maintained approximately 2-4 cm from the top of the powder pile to minimize the impact of falling powder on the tip of the cone. After the powder cone was built, height of the material forming the cone (h) and the radius (r) of the base were measured by a metal ruler. The angle of repose (θ) was calculated as follows: tan (θ)=h/r. Results were only considered valid when a symmetrical cone of powder was formed. Triplicate tests were attempted for each size of the funnels with the same amount of material being used.
# [2] = Static charge, Newtry static meter; assay type: physicochemical
# Description: Static charge measurements were performed using a Newtry static meter. The powders were accumulated onto a piece of weigh paper and the surface gently leveled. The static meter was held approximately 25 millimeters from the surface of the material to obtain a reading. Three replicate measurements were taken, and an average was calculated.
# [3] = Tapped density, Caleva tapped density tester; assay type: physicochemical; conditions: 35% RH exposure ~24 h; after tapping
# [4] = cited from earlier work
# [5] = Bulk density, graduated cylinder; assay type: physicochemical
# [6] = Tapped density, Caleva tapped density tester; assay type: physicochemical; conditions: after tapping
# Description: The artesunate powders were then passed through a No. 18, 1.00 mm sieve and then added to a 10 mL Cole Parmer graduated cylinder. The graduated cylinder containing the artesunate powders was placed on a Caleva tapped density tester. The samples in the graduated cylinder were then subjected to the following sequence: 10 taps, 500 additional taps, 1250 additional taps, and 1250 additional taps. A volume was taken at the end of each set of taps, and when the volume was consistent for two sets in a row, the measurement was terminated. This final volume was then used to calculate the tapped density. Two replicate measurements were taken, and an average value was calculated.
# [7] = SEM images of caking / agglomeration; assay type: physicochemical
# Description: SEM images were collected using a Phenom XL Desktop SEM equipped with a CeB6 electron source (see FIG. 6). Phenom User Interface version 1.4 was used to acquire and save the images. Detailed image parameters are recorded in the footer of each image. Powder sample preparation for proper SEM results is known to those skilled in the art, and mainly relies on a proper monolayer of particles. These can be prepared with: the flick method, wherein a cotton swab is used to disperse particles onto a sample support by the “flick of a finger”; drop casting, where liquid solvents transfer particles onto a sample stub; or the dish method, where particles are spread over the area of a petri dish or similar flat surface using a spatula. A Nebula Particle Dispenser may also be used to prepare a uniform layer of powder. Although it is desirable to avoid agglomeration, the example as described herein sought to determine when agglomeration occurs at particular humidity levels. The samples tested herein were prepared with the flick method.
# [8] = Dynamic Vapor Sorption (DVS) moisture absorbance; assay type: physicochemical; conditions: 25 °C
# Description: The instruments were calibrated with standard weights and a sodium bromide standard for humidity. One sample was equilibrated 50% RH for at least 5 days prior to analysis, while the other sample was equilibrated to 20% RH for at least 5 days prior to analysis. Approximately 10 to 20 mg of the powder samples were loaded into metal-coated quartz pans for analysis. The samples were analyzed at 25° C. in 10% RH steps from 5 to 95% RH (adsorption cycle) and from 95 to 5% RH (desorption cycle). The movement from one step to the next occurred either after satisfying the equilibrium criterion of 0.01% weight change in 30 minutes or, if the equilibrium criterion was not met, after 90 minutes. The percent weight change values were calculated using Microsoft Excel®2016. The results of this example are provided in Tables 6 and 7 and depicted in FIG. 1 (Sample Equilibrated to 20% RH) and FIG. 2 (Sample Equilibrated to 50% RH).
# [9] = cited from earlier work; remark: listed apart in the source
# [10] = 10% RH exposure, at least five days
# [11] = 20% RH exposure, at least five days
# [12] = 30% RH exposure, at least five days
# [13] = 40% RH exposure, at least five days
# [14] = 50% RH exposure, at least five days
structure (smiles),measurement,setting,value
"C[C@H]1[C@H](OC(=O)CCC(=O)O)O[C@@H]2O[C@@]3(C)CC[C@H]4[C@H](C)CC[C@@H]1[C@@]24OO3 [artesunate powder, 4-oxo-4-[[(1R,4S,5R,8S,9R,10S,12R,13R)-1,5,9-trimethyl-11,14,15,16-tetraoxatetracyclo[10.3.1.0^4,13.0^8,13]hexadecan-10-yl]oxy]butanoic acid]",angle of repose,"[1]; 35% RH, Average of Funnels 1-3",39 degrees
same,angle of repose,"[1]; 35% RH, Funnel 1 (8 mm opening)",35 degrees
same,angle of repose,"[1]; 35% RH, Funnel 2 (10 mm opening)",38 degrees
same,angle of repose,"[1]; 35% RH, Funnel 3 (12 mm opening)",45 degrees
same,flow properties based on USP 1174,[1]; 35% relative humidity,acceptable
same,angle of repose,"[1]; 50% RH, Average of Funnels 1-3",43 degrees
same,angle of repose,"[1]; 50% RH, Funnel 1 (8 mm opening)",42 degrees
same,angle of repose,"[1]; 50% RH, Funnel 2 (10 mm opening)",45 degrees
same,angle of repose,"[1]; 50% RH, Funnel 3 (12 mm opening)",42 degrees
same,flow property based on USP 1174,[1]; 50% relative humidity,passable but may hang up
same,Average Static Reading,[2]; [10],0.36 kV
same,Static Reading 1,[2]; [10],0.40 kV
same,Static Reading 2,[2]; [10],0.38 kV
same,Static Reading 3,[2]; [10],0.30 kV
same,Average Static Reading,[2]; 11% RH,0.36 kV
same,Average Static Reading,[2]; [11],0.13 kV
same,Static Reading 1,[2]; [11],0.12 kV
same,Static Reading 2,[2]; [11],0.13 kV
same,Static Reading 3,[2]; [11],0.13 kV
same,Average Static Reading,[2]; 22% RH,0.13 kV
same,Average Static Reading,[2]; [12],−0.04 kV
same,Static Reading 1,[2]; [12],−0.04 kV
same,Static Reading 2,[2]; [12],−0.04 kV
same,Static Reading 3,[2]; [12],−0.04 kV
same,Average Static Reading,[2]; [13],0.01 kV
same,Static Reading 1,[2]; [13],0.02 kV
same,Static Reading 2,[2]; [13],0.01 kV
same,Static Reading 3,[2]; [13],0.00 kV
same,Average Static Reading,[2]; [14],−0.05 kV
same,Static Reading 1,[2]; [14],−0.05 kV
same,Static Reading 2,[2]; [14],−0.05 kV
same,Static Reading 3,[2]; [14],−0.05 kV
same,Bulk Density 3 (Tapped Densities of Powder Samples),[3],0.337 g/mL
same,solubility in organic solvents,"[4]; organic solvents, such as acetone and methanol",soluble
same,solubility in water,[4]; water,slightly soluble
same,Average Bulk Density,[5]; 20% RH exposure ~24 h,0.203 g/mL
same,Bulk Density 1,[5]; 20% RH exposure ~24 h,0.193 g/mL
same,Bulk Density 2,[5]; 20% RH exposure ~24 h,0.231 g/mL
same,Average Bulk Density,[5]; 50% RH exposure ~24 h,0.203 g/mL
same,Bulk Density 1,[5]; 50% RH exposure ~24 h,0.200 g/mL
same,Bulk Density 2,[5]; 50% RH exposure ~24 h,0.208 g/mL
same,Average Bulk Density (Tapped Densities of Powder Samples),[6]; 20% RH exposure ~24 h,0.303 g/mL
same,Bulk Density 1 (Tapped Densities of Powder Samples),[6]; 20% RH exposure ~24 h,0.307 g/mL
same,Bulk Density 2 (Tapped Densities of Powder Samples),[6]; 20% RH exposure ~24 h,0.318 g/mL
same,Bulk Density 3 (Tapped Densities of Powder Samples),[6]; 20% RH exposure ~24 h,0.283 g/mL
same,Average Bulk Density (Tapped Densities of Powder Samples),[6]; 35% RH exposure ~24 h,0.318 g/mL
same,Bulk Density 1 (Tapped Densities of Powder Samples),[6]; 35% RH exposure ~24 h,0.317 g/mL
same,Bulk Density 2 (Tapped Densities of Powder Samples),[6]; 35% RH exposure ~24 h,0.300 g/mL
same,Average Bulk Density (Tapped Densities of Powder Samples),[6]; 50% RH exposure ~24 h,0.317 g/mL
same,Bulk Density 1 (Tapped Densities of Powder Samples),[6]; 50% RH exposure ~24 h,0.320 g/mL
same,Bulk Density 2 (Tapped Densities of Powder Samples),[6]; 50% RH exposure ~24 h,0.312 g/mL
same,Bulk Density 3 (Tapped Densities of Powder Samples),[6]; 50% RH exposure ~24 h,0.319 g/mL
same,caking / agglomeration in SEM images,[7]; 20% RH (FIG. 6),"strong caking, or agglomeration"
same,caking in SEM images,[7]; 35% RH (FIG. 7),less caking
same,agglomeration / caking in SEM images,[7]; 50% RH (FIG. 8),"significant agglomeration, or caking"
same,% change (DVS),"[8]; sample equilibrated to 20% RH, RH step 95, total 360 min",100.08%
same,% change (DVS),"[8]; sample equilibrated to 20% RH, adsorption, RH step 5, total 0 min",100.00%
same,% change (DVS),"[8]; sample equilibrated to 20% RH, adsorption, RH step 5, total 60 min",100.00%
same,% change (DVS),"[8]; sample equilibrated to 20% RH, adsorption, RH step 15, total 90 min",100.02%
same,% change (DVS),"[8]; sample equilibrated to 20% RH, adsorption, RH step 25, total 120 min",100.02%
same,% change (DVS),"[8]; sample equilibrated to 20% RH, adsorption, RH step 35, total 150 min",100.03%
same,% change (DVS),"[8]; sample equilibrated to 20% RH, adsorption, RH step 45, total 180 min",100.03%
same,% change (DVS),"[8]; sample equilibrated to 20% RH, adsorption, RH step 55, total 210 min",100.03%
same,% change (DVS),"[8]; sample equilibrated to 20% RH, adsorption, RH step 65, total 240 min",100.04%
same,% change (DVS),"[8]; sample equilibrated to 20% RH, adsorption, RH step 75, total 270 min",100.05%
same,% change (DVS),"[8]; sample equilibrated to 20% RH, adsorption, RH step 85, total 300 min",100.06%
same,% change (DVS),"[8]; sample equilibrated to 20% RH, desorption, RH step 5, total 630 min",100.04%
same,% change (DVS),"[8]; sample equilibrated to 20% RH, desorption, RH step 15, total 600 min",100.04%
same,% change (DVS),"[8]; sample equilibrated to 20% RH, desorption, RH step 25, total 570 min",100.04%
same,% change (DVS),"[8]; sample equilibrated to 20% RH, desorption, RH step 35, total 540 min",100.04%
same,% change (DVS),"[8]; sample equilibrated to 20% RH, desorption, RH step 45, total 510 min",100.05%
same,% change (DVS),"[8]; sample equilibrated to 20% RH, desorption, RH step 55, total 480 min",100.06%
same,% change (DVS),"[8]; sample equilibrated to 20% RH, desorption, RH step 65, total 450 min",100.06%
same,% change (DVS),"[8]; sample equilibrated to 20% RH, desorption, RH step 75, total 420 min",100.06%
same,% change (DVS),"[8]; sample equilibrated to 20% RH, desorption, RH step 85, total 390 min",100.07%
same,% change (DVS),"[8]; sample equilibrated to 50% RH, RH step 95, total 360 min",100.08%
same,% change (DVS),"[8]; sample equilibrated to 50% RH, adsorption, RH step 5, total 0 min",100.00%
same,% change (DVS),"[8]; sample equilibrated to 50% RH, adsorption, RH step 5, total 30 min",100.01%
same,% change (DVS),"[8]; sample equilibrated to 50% RH, adsorption, RH step 15, total 60 min",100.01%
same,% change (DVS),"[8]; sample equilibrated to 50% RH, adsorption, RH step 25, total 90 min",100.01%
same,% change (DVS),"[8]; sample equilibrated to 50% RH, adsorption, RH step 35, total 120 min",100.01%
same,% change (DVS),"[8]; sample equilibrated to 50% RH, adsorption, RH step 45, total 150 min",100.02%
same,% change (DVS),"[8]; sample equilibrated to 50% RH, adsorption, RH step 55, total 180 min",100.02%
same,% change (DVS),"[8]; sample equilibrated to 50% RH, adsorption, RH step 65, total 240 min",100.03%
same,% change (DVS),"[8]; sample equilibrated to 50% RH, adsorption, RH step 75, total 270 min",100.04%
same,% change (DVS),"[8]; sample equilibrated to 50% RH, adsorption, RH step 85, total 300 min",100.05%
same,% change (DVS),"[8]; sample equilibrated to 50% RH, desorption, RH step 5, total 660 min",100.02%
same,% change (DVS),"[8]; sample equilibrated to 50% RH, desorption, RH step 15, total 630 min",100.02%
same,% change (DVS),"[8]; sample equilibrated to 50% RH, desorption, RH step 25, total 600 min",100.02%
same,% change (DVS),"[8]; sample equilibrated to 50% RH, desorption, RH step 35, total 570 min",100.02%
same,% change (DVS),"[8]; sample equilibrated to 50% RH, desorption, RH step 45, total 540 min",100.03%
same,% change (DVS),"[8]; sample equilibrated to 50% RH, desorption, RH step 55, total 510 min",100.04%
same,% change (DVS),"[8]; sample equilibrated to 50% RH, desorption, RH step 65, total 480 min",100.05%
same,% change (DVS),"[8]; sample equilibrated to 50% RH, desorption, RH step 75, total 450 min",100.05%
same,% change (DVS),"[8]; sample equilibrated to 50% RH, desorption, RH step 85, total 420 min",100.06%
same,stability under basic and acidic conditions,[9]; basic and acidic conditions,unstable
same,degradation by moisture and heat,"[9]; moisture and heat (Agnihotri J. et al, 2013)",susceptible to degradation
